Columns and labels:
[1] = system: barnyardgrass; assay: Test C flooded paddy test; type: in vivo, Echinochloa crus-galli; conditions: Flood
Summary of the method: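 2-leaf stage; flood 3 cm over soil; compound into paddy water; depth held; greenhouse 13–15 d; visual % control vs untreated (0 = none, 100 = complete); "-" = not tested.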

[2] = system: wheat; assay: Test A pre-/postemergence herbicide test; type: in vivo, Triticum aestivum; conditions: Postemergence
Summary of the method: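 Both application timings used compounds in a non-phytotoxic solvent plus surfactant. Pre-emergence: soil sprayed directly after seeding into loam/sand. Post-emergence: foliage of 2–10 cm seedlings (1–2 leaves) sprayed. Injury rated ~10 days later, 0–100.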

[3] = system: crabgrass, large; assay: Test C pre-/postemergence herbicide test; type: in vivo, Digitaria sanguinalis
Summary of the method: (§1)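 Herbicidal effect was judged by eye 13 to 15 days after treatment in the greenhouse, using a 0–100 scale against controls. Chemicals in a non-phytotoxic solvent with surfactant were sprayed onto planted loam/sand soil or onto plants 2 to 18 cm tall in a peat-based growing medium.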

[4] = system: chickweed; assay: Test C postemergence herbicide test; type: in vivo, Stellaria media
Summary of the method: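 Greenhouse pot plants at 2 to 18 cm height (1- to 4-leaf stage) received a postemergence application of formulated test chemical. Visual ratings against untreated controls were made after 13 to 15 days, on a 0 (no effect) to 100 (complete control) scale.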

[5] = system: kochia; assay: Test C pre-/postemergence herbicide test; type: in vivo, Kochia scoparia; conditions: Postemergence
Summary of the method: as §1

[6] = 16 g ai/ha, scale 0 to 100 (0 no effect, 100 complete control)
[7] = 31 g ai/ha, scale 0 to 100 (0 no effect, 100 complete control)
[8] = 62 g ai/ha, scale 0 (no effect) to 100 (complete control)
[9] = 125 g ai/ha, scale 0 to 100 (0 no effect, 100 complete control)

CN1CC(c2cccc(C(F)(F)F)c2)C(C(=O)Nc2ccccc2F)C1=O (stereo not shown) [Compound 277]
Plant response rating, Barnyardgrass ([1]; 62 g ai/ha, scale of 0 to 100 where 0 is no effect and 100 is complete control, 13 to 15 days): 50 | Plant response rating, Barnyardgrass ([1]; 125 g ai/ha, scale of 0 to 100 where 0 is no effect and 100 is complete control, 13 to 15 days): 65 | Plant response rating, Barnyardgrass ([1]; 250 g ai/ha, scale of 0 to 100 where 0 is no effect and 100 is complete control, 13 to 15 days): 70 | Plant response rating, Barnyardgrass ([1]; 500 g ai/ha, scale 0 to 100): 70 | Plant response rating, Wheat ([2]; 125 g ai/ha, visual rating on 0 to 100 scale (0 no effect, 100 complete control), approx. 10 days): 60 | Plant response rating, Wheat ([2]; 500 g ai/ha, 0 to 100 scale (0 no effect, 100 complete control)): 70 | Plant response rating, Crabgrass, Large ([3]; Postemergence, 16 g ai/ha, scale 0 to 100 (0 no effect, 100 complete control)): 5 | Plant response rating, Crabgrass, Large ([3]; Postemergence, 31 g ai/ha, scale 0 to 100 (0 no effect, 100 complete control)): 15 | Plant response rating, Crabgrass, Large ([3]; Postemergence, 62 g ai/ha, scale 0 (no effect) to 100 (complete control)): 65 | Plant response rating, Crabgrass, Large ([3]; Postemergence, 125 g ai/ha, scale 0 to 100 (0 no effect, 100 complete control)): 70 | Crabgrass, Large plant response rating ([3]; Preemergence, 31 g ai/ha, scale 0 to 100, 0 is no effect and 100 is complete control): 98 | Crabgrass, Large plant response rating ([3]; Preemergence, 62 g ai/ha, scale 0 to 100 (0 no effect, 100 complete control)): 100 | Plant response rating, Crabgrass, Large ([3]; Preemergence, 125 g ai/ha, scale 0 to 100 (0 no effect, 100 complete control)): 100 | Plant response rating, Crabgrass, Large ([3]; Preemergence, 16 g ai/ha, scale 0 to 100): 95 | Plant response rating, Chickweed [4, 6]: 0 | Plant response rating, Chickweed [4, 7]: 40 | Plant response rating, Chickweed [4, 8]: 0 | Plant response rating, Chickweed [4, 9]: 40 | Plant response rating, Kochia [5, 6]: 0 | Plant response rating, Kochia [5, 7]: 0 | Plant response rating, Kochia [5, 8]: 5 | Plant response rating, Kochia [5, 9]: 60

— patent US10294202B2, “Pyrrolidinones as herbicides” (FMC Corporation, priority 2013, dated 2019)
